Format in all cases: cell-based
One assay concerns Aβ-40. Kind of assay: MSD Human (6E10) Ab 3-PLEX elisa, conditioned media of 2B7 cells: Aβ-40. Conditions: Homo sapiens; for IC50: Aβ-40 (superscript b). In a few lines: (§1)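 Confluent 2B7 cells were treated with compound serial dilutions (1% DMSO final) for 5 hours at 37° C. Conditioned media, diluted 1:1 in blocking buffer, was incubated with detection antibody overnight at 4 degrees C or 2 hours at room temp.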

The subject of the next assay is Aβ-42. The experiment in a line: MSD Human (6E10) Ab 3-PLEX elisa, conditioned media of 2B7 cells: Aβ-42. The settings on record: Homo sapiens, Aβ-42 (superscript c). In a few lines: as §1
The subject of the next assay is Aβ-38. Kind of assay: MSD Human (6E10) Ab 3-PLEX elisa, conditioned media of 2B7 cells: Aβ-38. The settings on record: Homo sapiens, Aβ-38 (superscript a). In a few lines:
as §1

Molecules are shown by their SMILES. Like-named read-outs stand apart in the source and are kept apart here.

This is an account of results in patent US20110251379A1, “COMPOUNDS USEFUL FOR TREATING NEURODEGENERATIVE DISORDERS” (Satori Pharmaceuticals, Inc., priority 2010, published 2011).

The inhibition is the share of the control response that was lost under treatment. Low readings indicate a weak effect, high ones a strong effect.

Take `CC(C)[C@@H](OC(N)=O)C1C[C@@H](C)[C@H]2C(O1)[C@H](O)[C@@]1(C)[C@@H]3CC[C@H]4C(C)(C)C(O[C@H]5CNCCO5)CC[C@@]45C[C@@]35CC[C@]21C` (stereo partly shown): the IC50 in the assay with Aβ-40 (read-out: 50% reduction value) is 1 to 10 µM; in the assay with Aβ-40 (read-out: IC50 range), 1 to 10 µM; in the assay on Aβ-42 (read-out: 50% reduction value), under 1 µM; in the assay on Aβ-42 (read-out: IC50 range), under 1 µM; in the assay with Aβ-38 (read-out: 50% reduction value), under 1 µM.
Take `CCO[C@H](C(C)C)C1C[C@@H](C)[C@H]2C(O1)[C@H](O)[C@@]1(C)[C@@H]3CC[C@H]4C(C)(C)C(O[C@H]5CNCCO5)CC[C@@]45C[C@@]35CC[C@]21C` (stereo partly shown): the IC50 in the assay on Aβ-40 (read-out: 50% reduction value), in the assay with Aβ-40 (read-out: IC50 range), in the assay with Aβ-42 (read-out: 50% reduction value), in the assay on Aβ-42 (read-out: IC50 range) and in the assay on Aβ-38 (read-out: 50% reduction value) was 1 to 10 µM throughout.
Consider `CCO[C@H](C(C)C)C1C[C@@H](C)[C@H]2C(O1)[C@H](O)[C@@]1(C)[C@@H]3CC[C@H]4C(C)(C)C(O)CC[C@@]45C[C@@]35CC[C@]21C` (stereo partly shown), for which the IC50 in the assay on Aβ-40 (read-out: 50% reduction value), with Aβ-42 (read-out: 50% reduction value) and with Aβ-38 (read-out: 50% reduction value) was 1 to 10 µM in each case.
As for `CC(C)[C@@H](OC(=O)C1CCC1)C1C[C@@H](C)[C@H]2C(O1)[C@H](O)[C@@]1(C)[C@@H]3CC[C@H]4C(C)(C)C(O)CC[C@@]45C[C@@]35CC[C@]21C` (stereo partly shown), the IC50 is 1 to 10 µM in the assay with Aβ-40 (read-out: 50% reduction value), under 1 µM in the assay on Aβ-42 (read-out: 50% reduction value), under 1 µM with Aβ-38 (read-out: 50% reduction value) and 1 to 10 µM in the assay with Aβ-38 (read-out: IC50 range).
`CC(C)CC(=O)O[C@@H](C1C[C@@H](C)[C@H]2C(O1)[C@H](O)[C@@]1(C)[C@@H]3CC[C@H]4C(C)(C)C(O)CC[C@@]45C[C@@]35CC[C@]21C)C(C)(C)O` (stereo partly shown): the IC50 in the assay with Aβ-40 (read-out: 50% reduction value) is 1 to 10 µM; in the assay with Aβ-42 (read-out: 50% reduction value) it was under 1 µM; in the assay on Aβ-38 (read-out: 50% reduction value), under 1 µM; in the assay with Aβ-38 (read-out: IC50 range) it was under 1 µM.
As for `CC(=O)OC[C@@]1(C)C[C@@H](C)[C@H]2C(O1)[C@H](O)[C@@]1(C)C3CC[C@H]4C(C)(C)C(O)CC[C@@]45C[C@@]35CC[C@]21C` (stereo partly shown), the values for the IC50 in the assay with Aβ-40 (read-out: 50% reduction value), in the assay on Aβ-42 (read-out: 50% reduction value) and in the assay on Aβ-38 (read-out: 50% reduction value) were 1 to 10 µM, over 10 µM and 1 to 10 µM, respectively.
As to `CC(=O)O[C@@H](C1C[C@@H](C)C2C(O1)[C@H](O)[C@@]1(C)[C@@H]3CC[C@H]4C(C)(C)C(O)CC[C@@]45C[C@@]35CC[C@]21C)C(C)(C)C` (stereo partly shown), the inhibition at 20 µM in the assay with Aβ-40 (Aβ-40, 20 μM) is 25 to 75%. Further, the IC50 with Aβ-42 (read-out: 50% reduction value) was under 1 µM; in the assay on Aβ-38 (read-out: 50% reduction value), 1 to 10 µM.
Turning to `CC(C)[C@@H](OC(=O)N1CCC1)C1C[C@@H](C)[C@H]2C(O1)[C@H](O)[C@@]1(C)C3CC[C@H]4C(C)(C)C(OC(=O)N5CC(C(=O)O)C5)CC[C@@]45C[C@@]35CC[C@]21C` (stereo partly shown), the IC50 in the assay on Aβ-40 (read-out: 50% reduction value) was 1 to 10 µM; in the assay on Aβ-42 (read-out: 50% reduction value), under 1 µM; in the assay on Aβ-38 (read-out: 50% reduction value), under 1 µM.
`CC(C)[C@@H](OC(=O)N1CCC1)C1C[C@@H](C)[C@H]2C(O1)[C@H](O)[C@@]1(C)C3CC[C@H]4C(C)(C)C(OC(=O)NC5CNC5)CC[C@@]45C[C@@]35CC[C@]21C` (stereo partly shown): the IC50 in the assay on Aβ-40 (read-out: 50% reduction value) is 1 to 10 µM; with Aβ-40 (read-out: IC50 range), 1 to 10 µM; in the assay with Aβ-42 (read-out: 50% reduction value), under 1 µM; in the assay on Aβ-42 (read-out: IC50 range), under 1 µM; with Aβ-38 (read-out: 50% reduction value), under 1 µM; in the assay with Aβ-38 (read-out: IC50 range) it was under 1 µM.
For `CCO[C@@H]([C@H]1C[C@@H](C)[C@H]2[C@H](O1)[C@H](O)[C@@]1(C)[C@@H]3CC[C@H]4C(C)(C)[C@@H](OC(=O)N5CC(C(=O)O)C5)CC[C@@]45C[C@@]35CC[C@]21C)C(C)(C)O`, the IC50 in the assay on Aβ-40 (read-out: 50% reduction value) was 1 to 10 µM; with Aβ-40 (read-out: IC50 range), 1 to 10 µM; with Aβ-42 (read-out: 50% reduction value) it was under 1 µM; with Aβ-42 (read-out: IC50 range) it was under 1 µM; in the assay with Aβ-38 (read-out: 50% reduction value), under 1 µM; in the assay on Aβ-38 (read-out: IC50 range), under 1 µM.
With `CC(C)O[C@@H](C1C[C@@H](C)[C@H]2C(O1)[C@H](O)[C@@]1(C)C3CC[C@H]4C(C)(C)C(O[C@H]5CN(C6COC6)CCO5)CC[C@@]45C[C@@]35CC[C@]21C)C(C)(C)O` (stereo partly shown), the IC50 in the assay with Aβ-40 (read-out: 50% reduction value) is 1 to 10 µM; in the assay with Aβ-40 (read-out: IC50 range), 1 to 10 µM; in the assay on Aβ-42 (read-out: 50% reduction value), under 1 µM; with Aβ-42 (read-out: IC50 range), under 1 µM; with Aβ-38 (read-out: 50% reduction value) it was under 1 µM; in the assay with Aβ-38 (read-out: IC50 range), under 1 µM.
For the molecule `CCO[C@@H](C1C[C@@H](C)[C@H]2C(O1)[C@H](O)[C@@]1(C)C3CC[C@H]4C(C)(C)C(O[C@H]5CN(C6CCOCC6)CCO5)CC[C@@]45C[C@@]35CC[C@]21C)C(C)(C)O` (stereo partly shown), the IC50 was 1 to 10 µM in the assay on Aβ-40 (read-out: 50% reduction value); 1 to 10 µM in the assay on Aβ-40 (read-out: IC50 range); under 1 µM in the assay with Aβ-42 (read-out: 50% reduction value); under 1 µM with Aβ-42 (read-out: IC50 range); under 1 µM with Aβ-38 (read-out: 50% reduction value); under 1 µM with Aβ-38 (read-out: IC50 range).
Take `CCO[C@@H](C1C[C@@H](C)[C@H]2C(O1)[C@H](O)[C@@]1(C)C3CC[C@H]4C(C)(C)C(O[C@H]5CN(C6CCOC6)CCO5)CC[C@@]45C[C@@]35CC[C@]21C)C(C)(C)O` (stereo partly shown): the IC50 in the assay on Aβ-40 (read-out: 50% reduction value) is 1 to 10 µM; with Aβ-42 (read-out: 50% reduction value) it was under 1 µM; with Aβ-42 (read-out: IC50 range), under 1 µM; with Aβ-38 (read-out: 50% reduction value) it was under 1 µM.
